Laboratory results: patent US4740601A, “Imidazole derivatives having antimicrobial activities” (SS Pharmaceutical Co., Ltd., priority 1985, dated 1988)
Where two headings read alike, the source gives them in different places.

How the values were obtained:
Type in all cases: cell-based
[1] = system: Micrococcus lysodeixticus IFO 3333; test: antimicrobial activity, MIC
[2] = system: Aspergillus niger ATCC 9642; test: antimicrobial activity, MIC
[3] = system: Debaryomyces kloeckeri IFO 0015; test: antimicrobial activity, MIC
[4] = system: Trichophyton mentagrophytes IFO 5812; test: antimicrobial activity, MIC
[5] = system: Staphylococcus aureus Terajima; test: antimicrobial activity, MIC
[6] = system: Microsporum cookei IFO 8303; test: antimicrobial activity, MIC
[7] = system: Staphylococcus epidermidis ATCC 12228; test: antimicrobial activity, MIC
[8] = system: Microsporum gypseum IFO 8231; test: antimicrobial activity, MIC
[9] = system: Microsporum audounii IFO 6074; test: antimicrobial activity, MIC
Sarcina lutea ATCC 9341 = test: antimicrobial activity, MIC
[10] = system: Fusarium moniliforme IAM 5062; test: antimicrobial activity, MIC
[11] = system: Trichophyton tonsurans IFO 5928; test: antimicrobial activity, MIC
[12] = system: Staphylococcus aureus Smith; test: antimicrobial activity, MIC
[13] = system: Cladosporium fulvum IAM 5006; test: antimicrobial activity, MIC
[14] = system: Streptococcus faecalis IFO 12964; test: antimicrobial activity, MIC
[15] = system: Pyricularia oryzae IAM 5016; test: microbe, parasite or virus in culture
[16] = system: Saccharomyces cerevisiae ATCC 9763; test: antimicrobial activity, MIC
[17] = system: Staphylococcus aureus FDA 209P; test: antimicrobial activity, MIC
Saccharomyces ruxii 6507 = test: antimicrobial activity, MIC; details: Saccharomyces ruxii 6507
[18] = system: Epidermophyton floccosum IFO 9045; test: antimicrobial activity, MIC
Candida albicans Yu-1200 = test: antimicrobial activity, MIC
[19] = system: Helminthosporium sesamum IAM 5012; test: antimicrobial activity, MIC
[20] = system: Aspergillus oryzae IMF 4014; test: antimicrobial activity, MIC
[21] = system: Penicillium chrysogenum ATCC 6010; test: antimicrobial activity, MIC
[22] = system: Candida albicans NHL 4019; test: antimicrobial activity, MIC
[23] = system: Trichophyton mentagrophytes QM 248; test: antimicrobial activity, MIC
[24] = system: Bacillus subtilis ATCC 6633; test: antimicrobial activity, MIC
[25] = system: Gibberella fujikuroi IAM 8046; test: antimicrobial activity, MIC
[26] = system: Trichophyton rubrum NHL J; test: antimicrobial activity, MIC; details: Trichophyton rubrum NHL J
[27] = Micrococcus lysodeixticus IFO 3333
[28] = Trichophyton mentagrophytes, IFO5812, Trichophyton mentagrophytes IFO 5812, read-out: MIC
[29] = Staphylococcus aureus, read-out: MIC
[30] = Staphylococcus epidermidis ATCC 12228
[31] = Nannizzia gypsea, IFO8231, Microsporum gypseum IFO 8231, read-out: MIC
[32] = Microsporum, IFO6074, Microsporum audounii IFO 6074, read-out: MIC
[33] = Trichophyton tonsurans, IFO5928, Trichophyton tonsurans IFO 5928, read-out: MIC
[34] = Fulvia fulva, IAM5006, Cladosporium fulvum IAM 5006, read-out: MIC
[35] = Enterococcus faecalis, IFO12964, Streptococcus faecalis IFO 12964, read-out: MIC
[36] = Pyricularia oryzae, IAM5016, Pyricularia oryzae IAM 5016
[37] = Saccharomyces cerevisiae, ATCC9763, Saccharomyces cerevisiae ATCC 9763, read-out: MIC
[38] = Staphylococcus aureus, FDA209P, read-out: MIC
[39] = Epidermophyton floccosum, IFO9045, Epidermophyton floccosum IFO 9045, read-out: MIC
[40] = Helminthosporium, IAM5012, Helminthosporium sesamum IAM 5012, read-out: MIC
[41] = Penicillium chrysogenum ATCC 6010
[42] = Candida albicans, NHL4019, Candida albicans NHL 4019, read-out: MIC
[43] = Trichophyton mentagrophytes, QM248, Trichophyton mentagrophytes QM 248, read-out: MIC
[44] = Trichophyton rubrum, read-out: MIC
[45] = Micrococcus, IFO3333, Micrococcus lysodeixticus IFO 3333, read-out: MIC
[46] = Aspergillus niger, ATCC9642, Aspergillus niger ATCC 9642, read-out: MIC
[47] = Paraphyton cookei, IFO8303, Microsporum cookei IFO 8303, read-out: MIC
[48] = Staphylococcus epidermidis, ATCC12228, Staphylococcus epidermidis ATCC 12228, read-out: MIC
[49] = Micrococcus luteus, ATCC9341, Sarcina lutea ATCC 9341, read-out: MIC
[50] = Fusarium verticillioides, IAM5062, Fusarium moniliforme IAM 5062, read-out: MIC
[51] = Aspergillus oryzae, IMF4014, Aspergillus oryzae IMF 4014, read-out: MIC
[52] = Penicillium chrysogenum, ATCC6010, Penicillium chrysogenum ATCC 6010, read-out: MIC
[53] = Bacillus subtilis, ATCC6633, Bacillus subtilis ATCC 6633, read-out: MIC
[54] = Fusarium fujikuroi, IAM8046, Gibberella fujikuroi IAM 8046, read-out: MIC

Measured: MIC

CCCOc1ccccc1C(=CSCc1ccccc1)n1ccnc1 (single isomer, unassigned) [Compound 3, 1-(2-n-propyloxyphenyl)-1-imidazolyl-2-benzylthioethylene]
0.78 µg/mL: [1]; [27]
25 µg/mL: [25]; Gibberella fujikuroi IAM 8046
0.39 µg/mL: [2]; Aspergillus niger ATCC 9642
6.25 µg/mL: [3]; IFO0015, read-out: MIC | [5]; [29] | [6]; Microsporum cookei IFO 8303 | [12]; [29] | [14]; [35] | [20]; Aspergillus oryzae IMF 4014
1.56 µg/mL: Sarcina lutea ATCC 9341; Sarcina lutea ATCC 9341 | [24]; Bacillus subtilis ATCC 6633
3.12 µg/mL: [7]; [30] | [18]; [39]
12.5 µg/mL: [13]; [34] | [17]; [38]
> 100 µg/mL: [10]; Fusarium moniliforme IAM 5062 | Candida albicans Yu-1200; YU1200, read-out: MIC
50 µg/mL: [21]; [41] | [22]; [42]
< 0.2 µg/mL: [4]; [28] | [8]; [31] | [9]; [32] | [11]; [33] | [15]; [36] | [16]; [37] | Saccharomyces ruxii 6507; read-out: MIC | [19]; [40] | [23]; [43] | [26]; [44]

CCCOc1ccccc1C(=CSCc1ccccc1)n1ccnc1 (single isomer, unassigned) [Compound 4]
0.78 µg/mL: [10]; Fusarium moniliforme IAM 5062 | [25]; Gibberella fujikuroi IAM 8046
1.56 µg/mL: [2]; Aspergillus niger ATCC 9642 | [6]; Microsporum cookei IFO 8303 | [20]; Aspergillus oryzae IMF 4014
3.12 µg/mL: [1]; [27] | [21]; [41]
1.78 µg/mL: [18]; Epidermophyton floccosum IFO 9045
6.25 µg/mL: [3] | Sarcina lutea ATCC 9341; Sarcina lutea ATCC 9341 | [24]; Bacillus subtilis ATCC 6633
< 0.2 µg/mL: [4]; Trichophyton mentagrophytes IFO 5812 | [8]; Microsporum gypseum IFO 8231 | [9]; Microsporum audounii IFO 6074 | [11]; Trichophyton tonsurans IFO 5928 | [15]; Pyricularia oryzae IAM 5016 | [16]; Saccharomyces cerevisiae ATCC 9763 | Saccharomyces ruxii 6507 | [19]; Helminthosporium sesamum IAM 5012 | [23]; Trichophyton mentagrophytes QM 248 | [26]
12.5 µg/mL: [5] | [7]; [30] | [12] | [14]; Streptococcus faecalis IFO 12964
> 100 µg/mL: Candida albicans Yu-1200
25 µg/mL: [13]; Cladosporium fulvum IAM 5006 | [17] | [22]; Candida albicans NHL 4019

CCCCOc1ccccc1C(=CSCc1ccccc1)n1ccnc1 (single isomer, unassigned) [Compound 8]
25 µg/mL: [17]; [38]
12.5 µg/mL: [2]; [46] | [6]; [47] | [10]; [50] | [20]; [51] | [21]; [52]
3.12 µg/mL: Sarcina lutea ATCC 9341; [49] | [24]; [53]
0.39 µg/mL: [4]; [28] | [8]; [31] | [23]; [43]
> 100 µg/mL: [13]; [34] | [14]; [35] | Candida albicans Yu-1200; YU1200, read-out: MIC | [22]; [42]
0.78 µg/mL: [19]; [40]
6.25 µg/mL: [3]; IFO0015, read-out: MIC | [5]; [29] | [7]; [48] | [12]; [29] | [18]; [39] | [25]; [54]
< 0.2 µg/mL: [9]; [32] | [11]; [33] | [15]; [36] | [16]; [37] | Saccharomyces ruxii 6507; read-out: MIC | [26]; [44]
1.56 µg/mL: [1]; [45]

CCCCCCOc1ccccc1C(=CSC)n1ccnc1 (single isomer, unassigned) [Compound 27]
1.56 µg/mL: [1]; [45] | [3]; IFO0015, read-out: MIC | [21]; [52]
6.25 µg/mL: [5]; [29] | [7]; [48] | [24]; [53]
3.12 µg/mL: Sarcina lutea ATCC 9341; [49] | [13]; [34]
12.5 µg/mL: [12]; [29] | [14]; [35] | [17]; [38]
50 µg/mL: Candida albicans Yu-1200; YU1200, read-out: MIC
25 µg/mL: [22]; [42]
< 0.2 µg/mL: [4]; [28] | [6]; [47] | [8]; [31] | [9]; [32] | [10]; [50] | [11]; [33] | [15]; [36] | [16]; [37] | Saccharomyces ruxii 6507; read-out: MIC | [18]; [39] | [19]; [40] | [20]; [51] | [23]; [43] | [25]; [54] | [26]; [44]
0.39 µg/mL: [2]; [46]
